In the assay the target is T1, Farnesyl protein transferase (FPT) (Homo sapiens, UniProt P49354+P49356).
T1 construct: partially purified from human placenta by ammonium sulphate fractionation; from tissue; host or cells: human placenta
Nature of the assay: Farnesyl protein transferase (FPT) inhibition, tritiated farnesyl pyrophosphate incorporation into Kras (ras-CVIM). Type of assay: biochemical. The settings on record: FPT partially purified from human placenta; 300 nM tritiated farnesyl pyrophosphate, 120 nM ras-CVIM, 20 minutes at 37°. As to the method:
Biological activity was tested as follows. Farnesyl protein transferase (FPT) was partially purified from human placenta by ammonium sulphate fractionation followed by a single Q-Sepharose® (Pharmacia, Inc) anion exchange chromatography essentially as described by Ray and Lopez-Belmonte (Ray K P and Lopez-Belmonte J (1992) Biochemical Society Transations 20 494-497). The substrate for FPT was Kras (CVIM C-terminal sequence). The cDNA for oncogenic val12 variant of human c-Ki-ras-2 4B was obtained from the plasmid pSW11-1 (ATCC). This was then subcloned into the polylinker of a suitable expression vector e.g. pIC147. The Kras was obtained after expression in the E. coli strain, BL21. The expression and purification of c-KI-ras-2 4B and the val12 variant in E. coli has also been reported by Lowe et al (Lowe P N et al. J. Biol. Chem. (1991) 266 1672-1678).
Incubations with enzyme contained 300 nM tritiated farnesyl pyrophosphate (DuPont/New England Nuclear), 120 nM ras-CVIM, 50 mM Tris HCl pH 8.0, 5 mM MgCl2, 10 μM ZnCl2, 5 mM dithiotheitol and compounds were added at appropriate concentrations in DMSO (3% final concentration in test and vehicle control). […] Precipitated protein was then collected onto glass fibre filter mats (B) using a Tomte® cell harvester and tritiated label was measured in a Wallac®1204 Betaplate scintillation counter.

pIC50: −log10 of the molar value.

The term pIC50 denotes the negative decadic logarithm of the IC50, by convention in mol/L. Read a low pIC50 as a large IC50. As for `O=C(Cc1cccnc1)N(CC(c1ccccc1)c1ccccc1)C[C@@H]1NCC[C@@H]1S` (relative stereo) [Example 2], the negative-log IC50 (pIC50) was ~6.38.

The record behind these values is patent publication US6946468B1, “3-mercaptopyrrolidines as farnesyl protein transferase inhibitors” (Zeneca Limited, priority 1996, dated 2005).
